Tested on: 855422-203-R-J1-PDC spheroids with HUVEC/MSC, viability
Assay: Anticancer human tumor 855422-203-R-J1-PDC patient-derived bladder carcinoma cell line growth inhibition [PI3K]
Conditions: for IC50: curve of first compound; for viability, T/C: stronger effect = lower value
How it was run: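 Stroma-containing spheroids: tumor line, pooled-donor HUVEC, hMSC. Treatments: targeted agents with PI3K inhibitors. Dosing: clinically relevant, half-log spacing, 10 microM ceiling without known Cmax. Read-out: cell viability.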

[1] = second compound 0.0316 µM, first compound 0.0316 µM
[2] = second compound 0.0316 µM, first compound 0.1 µM
[3] = second compound 0.0316 µM, first compound 0.316 µM
[4] = second compound 0.0316 µM, first compound 1 µM
[5] = second compound 0.0316 µM, first compound 3.16 µM
[6] = second compound 0.0316 µM, first compound 10 µM
[7] = second compound 0.1 µM, first compound 0.0316 µM
[8] = second compound 0.1 µM, first compound 0.1 µM
[9] = second compound 0.1 µM, first compound 0.316 µM
[10] = second compound 0.1 µM, first compound 1 µM
[11] = second compound 0.1 µM, first compound 3.16 µM
[12] = second compound 0.1 µM, first compound 10 µM
[13] = second compound 0.316 µM, first compound 0.0316 µM
[14] = second compound 0.316 µM, first compound 0.1 µM
[15] = second compound 0.316 µM, first compound 0.316 µM
[16] = second compound 0.316 µM, first compound 1 µM
[17] = second compound 0.316 µM, first compound 3.16 µM
[18] = second compound 0.316 µM, first compound 10 µM
[19] = second compound 1 µM, first compound 0.0316 µM
[20] = second compound 1 µM, first compound 0.1 µM
[21] = second compound 1 µM, first compound 0.316 µM
[22] = second compound 1 µM, first compound 1 µM
[23] = second compound 1 µM, first compound 3.16 µM
[24] = second compound 1 µM, first compound 10 µM
[25] = second compound 3.16 µM, first compound 0.0316 µM
[26] = second compound 3.16 µM, first compound 0.1 µM
[27] = second compound 3.16 µM, first compound 0.316 µM
[28] = second compound 3.16 µM, first compound 1 µM
[29] = second compound 3.16 µM, first compound 3.16 µM
[30] = second compound 3.16 µM, first compound 10 µM
[31] = second compound 10 µM, first compound 0.0316 µM
[32] = second compound 10 µM, first compound 0.1 µM
[33] = second compound 10 µM, first compound 0.316 µM
[34] = second compound 10 µM, first compound 1 µM
[35] = second compound 10 µM, first compound 3.16 µM
[36] = second compound 10 µM, first compound 10 µM
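Also: agents incubated with spheroids for one week before read-out.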
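For viability, T/C in this document: 100% = DMSO vehicle-treated control wells.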

CC(Cn1ccc(-c2ccc(C#N)c(Cl)c2)n1)NC(=O)c1cc(C(C)O)[nH]n1 (centres undefined) + CC(Nc1ncnc2nc[nH]c12)c1cc2cccc(Cl)c2c(=O)n1-c1ccccc1
IC50 (second compound 0.0316 µM): > 10 µM
IC50 (second compound 0.1 µM): > 10 µM
IC50 (second compound 0.316 µM): > 10 µM
IC50 (second compound 1 µM): > 10 µM
IC50 (second compound 3.16 µM): > 10 µM
IC50 (second compound 10 µM): > 10 µM
viability, T/C [1]: 105%
viability, T/C [2]: 93.3%
viability, T/C [3]: 113%
viability, T/C [4]: 98.3%
viability, T/C [5]: 91.6%
viability, T/C [6]: 67.8%
viability, T/C [7]: 105%
viability, T/C [8]: 107%
viability, T/C [9]: 106%
viability, T/C [10]: 105%
viability, T/C [11]: 90.3%
viability, T/C [12]: 82.8%
viability, T/C [13]: 97%
viability, T/C [14]: 104%
viability, T/C [15]: 96.6%
viability, T/C [16]: 112%
viability, T/C [17]: 89.9%
viability, T/C [18]: 77.4%
viability, T/C [19]: 92.9%
viability, T/C [20]: 108%
viability, T/C [21]: 107%
viability, T/C [22]: 103%
viability, T/C [23]: 95.5%
viability, T/C [24]: 95.7%
viability, T/C [25]: 97.3%
viability, T/C [26]: 91.1%
viability, T/C [27]: 108%
viability, T/C [28]: 101%
viability, T/C [29]: 90.4%
viability, T/C [30]: 78.7%
viability, T/C [31]: 88.5%
viability, T/C [32]: 84.9%
viability, T/C [33]: 89.5%
viability, T/C [34]: 82.3%
viability, T/C [35]: 74.5%
viability, T/C [36]: 70%

CC1(C)CCC(Nc2ncc(C(F)(F)F)c(-c3c[nH]c4c(P(C)(C)=O)c(C#N)ccc34)n2)CN1 (centres undefined) + CC(Nc1ncnc2nc[nH]c12)c1cc2cccc(Cl)c2c(=O)n1-c1ccccc1
IC50 (second compound 0.0316 µM): < 0.0316 µM
IC50 (second compound 0.1 µM): < 0.0316 µM
IC50 (second compound 0.316 µM): < 0.0316 µM
IC50 (second compound 1 µM): < 0.0316 µM
IC50 (second compound 3.16 µM): < 0.0316 µM
IC50 (second compound 10 µM): < 0.0316 µM
viability, T/C [1]: 30.3%
viability, T/C [2]: 24.1%
viability, T/C [3]: 25%
viability, T/C [4]: 26.8%
viability, T/C [5]: 28.9%
viability, T/C [6]: 3.47%
viability, T/C [7]: 27.4%
viability, T/C [8]: 25%
viability, T/C [9]: 24.6%
viability, T/C [10]: 27%
viability, T/C [11]: 30.2%
viability, T/C [12]: 5.41%
viability, T/C [13]: 27.2%
viability, T/C [14]: 24.9%
viability, T/C [15]: 23.8%
viability, T/C [16]: 27.5%
viability, T/C [17]: 31.6%
viability, T/C [18]: 4.23%
viability, T/C [19]: 24.2%
viability, T/C [20]: 28.2%
viability, T/C [21]: 27.2%
viability, T/C [22]: 26.7%
viability, T/C [23]: 26%
viability, T/C [24]: 5.15%
viability, T/C [25]: 23%
viability, T/C [26]: 23.1%
viability, T/C [27]: 24.6%
viability, T/C [28]: 23.9%
viability, T/C [29]: 26.6%
viability, T/C [30]: 2.74%
viability, T/C [31]: 23.8%
viability, T/C [32]: 21.4%
viability, T/C [33]: 18.8%
viability, T/C [34]: 23.7%
viability, T/C [35]: 18.9%
viability, T/C [36]: 1.26%

From PubChem BioAssay AID1963967 (Molecular Pharmacology Branch, DTP, NCI, 2024)
